In patent US20090054392A1, “NAPHTHYLPYRIMIDINE, NAPHTHYLPYRAZINE AND NAPHTHYLPYRIDAZINE ANALOGS AND THEIR USE AS AGONISTS OF THE WNT-BETA-CATENIN CELLULAR MESSAGING SYSTEM” (Wyeth, priority 2007, published 2009):
Read-outs that look alike come from different tables or passages of the source.

System: Dkk1-LRP5-TCF-Luciferase
Test: Functional Dkk1-LRP5-TCF-Luciferase Assay in U2OS Cells
Conditions: for fold induction at 2 µM: read-out: B = TCF ACTIVITY/DMSO CONTROL Fold induction @ 2.0 uM, 2.0 uM compound; for fold induction at 20 µM: read-out: C = TCF ACTIVITY/DMSO CONTROL Fold induction @ 20.0 uM, 20.0 uM compound; for A = MAX FOLD Induction/DMSO CONTROL: maximum fold induction over DMSO control

Compound	fold induction at 2 µM (Homo sapiens, U2OS)	fold induction at 20 µM (Homo sapiens, U2OS)	A = MAX FOLD Induction/DMSO CONTROL [fold]	EC50 (Homo sapiens, U2OS) [µM]	EC50 [µM]
CN(c1nccc(-c2ccc3ccccc3c2)n1)C1CCN(CC(N)=O)CC1 [2-(4-{methyl[4-(2-naphthyl)pyrimidin-2-yl]amino}piperidin-1-yl)acetamide]	2.62	0.02	2.215		
CN(C)[C@@H]1CCN([C@@H]2CCN(c3nccc(-c4ccc5ccccc5c4)n3)C2)C1 [(3R,3′R)-N,N-dimethyl-1′-[4-(2-naphthyl)pyrimidin-2-yl]-1,3′-bipyrrolidin-3-amine]	2.71	0.01	1.710		
CCNC(=O)NCC1CCN(c2nccc(-c3ccc4ccccc4c3)n2)C1 (stereo not drawn) [N-ethyl-N′-({1-[4-(2-naphthyl)pyrimidin-2-yl]pyrrolidin-3-yl}methyl)urea]	0.93	1.2			
c1ccc2cc(-c3ccnc(N4CCC4)n3)ccc2c1 [2-azetidin-1-yl-4-(2-naphthyl)pyrimidine]	1.37	1.58			
c1ccc(N2CCN(c3nccc(-c4ccc5ccccc5c4)n3)CC2)nc1 [4-(2-naphthyl)-2-(4-pyridin-2-ylpiperazin-1-yl)pyrimidine]	1.8				
CC(C)NC(=O)N[C@@H]1CCN(c2nccc(-c3ccc4ccccc4c3)n2)C1 [N-isopropyl-N′-{(3R)-1-[4-(2-naphthyl)pyrimidin-2-yl]pyrrolidin-3-yl}urea]	1.19	1.09			
O=c1[nH]c2ccccc2n1C1CCN(c2nccc(-c3ccc4ccccc4c3)n2)CC1 [1-{1-[4-(2-naphthyl)pyrimidin-2-yl]piperidin-4-yl}-1,3-dihydro-2H-benzimidazol-2-one]	1.03	0.01			
CN(C)[C@@H]1CCN(C[C@@H]2CCN(c3nccc(-c4ccc5ccccc5c4)n3)C2)C1 [(3R)—N,N-dimethyl-1-({(3S)-1-[4-(2-naphthyl)pyrimidin-2-yl]pyrrolidin-3-yl}methyl)pyrrolidin-3-amine]	1.53	0.03			
NCC1CCCN(c2nccc(-c3ccc4ccccc4c3)n2)C1 (stereo not drawn) [({1-[4-(2-naphthyl)pyrimidin-2-yl]piperidin-3-yl}methyl)amine]	2.9	0.005	5.433	2.68	
CN(C)S(=O)(=O)N[C@@H]1CCN(c2nccc(-c3ccc4ccccc4c3)n2)C1 [N,N-dimethyl-N′-{(3R)-1-[4-(2-naphthyl)pyrimidin-2-yl]pyrrolidin-3-yl}sulfamide]	1.42	0.82			
CC(C)(C)N[C@H]1CCN(c2nccc(-c3ccc4ccccc4c3)n2)C1 [(3S)—N-(tert-butyl)-1-[4-(2-naphthyl)pyrimidin-2-yl]pyrrolidin-3-amine]	2.39		2.690		
c1ccc2cc(-c3ccnc(NC[C@@H]4CCNC4)n3)ccc2c1 [4-(2-naphthyl)-N-[(3R)-pyrrolidin-3-ylmethyl]pyrimidin-2-amine]		0.06	7.510	3.88	
O[C@H]1CCN([C@@H]2CCN(c3nccc(-c4ccc5ccccc5c4)n3)C2)C1 [(3S,3′R)-1′-[4-(2-naphthyl)pyrimidin-2-yl]-1,3′-bipyrrolidin-3-ol]		3			
CC(C)(C)OC(=O)N1CCN(C[C@H]2CCN(c3nccc(-c4ccc5ccccc5c4)n3)C2)CC1 [tert-butyl 4-({(3R)-1-[4-(2-naphthyl)pyrimidin-2-yl]pyrrolidin-3-yl}methyl)piperazine-1-carboxylate]	1.95				
Cc1ccc(S(=O)(=O)N[C@H]2CC[C@H](Nc3nccc(-c4ccc5ccccc5c4)n3)CC2)cc1 [4-methyl-N-(trans-4-{[4-(2-naphthyl)pyrimidin-2-yl]amino}cyclohexyl)benzenesulfonamide]	1.78	1.13	1.230		
CCNC(=O)N1CCC(N(C)c2nccc(-c3ccc4ccccc4c3)n2)CC1 [N-ethyl-4-{methyl[4-(2-naphthyl)pyrimidin-2-yl]amino}piperidine-1-carboxamide]	1.2	1.45			
OC1CCN([C@H]2CCN(c3nccc(-c4ccc5ccccc5c4)n3)C2)CC1 [1-{(3S)-1-[4-(2-naphthyl)pyrimidin-2-yl]pyrrolidin-3-yl}piperidin-4-ol]	1.31	0.26			
O=C(NC1CCCCC1)N1CCC(CNc2nccc(-c3ccc4ccccc4c3)n2)CC1 [N-cyclohexyl-4-({[4-(2-naphthyl)pyrimidin-2-yl]amino}methyl)piperidine-1-carboxamide]	1.81	0.067	1.230		
c1ccc2cc(-c3ccnc(N4CCC(CN5CCCC5)CC4)n3)ccc2c1 [4-(2-naphthyl)-2-[4-(pyrrolidin-1-ylmethyl)piperidin-1-yl]pyrimidine]	2.07			3.5	3.18

Compound	fold induction at 2 µM (Homo sapiens, U2OS)	fold induction at 20 µM (Homo sapiens, U2OS)	A = MAX FOLD Induction/DMSO CONTROL [fold]	EC50 (Homo sapiens, U2OS) [µM]	EC50 [µM]
NCC1CC2CCC(C1)N2c1nccc(-c2ccc3ccccc3c2)n1 (stereo not drawn) [1-{8-[4-(2-naphthyl)pyrimidin-2-yl]-8-azabicyclo[3.2.1]oct-3-yl}methanamine]	1.5			0.55	
CN(C)CCN[C@H]1CCN(c2nccc(-c3ccc4ccccc4c3)n2)C1 [N,N-dimethyl-N′-{(3S)-1-[4-(2-naphthyl)pyrimidin-2-yl]pyrrolidin-3-yl}ethane-1,2-diamine]	1.5				
CN(C)CCN(C)[C@@H]1CCN(c2nccc(-c3ccc4ccccc4c3)n2)C1 [N,N,N′-trimethyl-N′-{(3R)-1-[4-(2-naphthyl)pyrimidin-2-yl]pyrrolidin-3-yl}ethane-1,2-diamine]	2.4				
O=C([C@@H]1CCCN1c1nccc(-c2ccc3ccccc3c2)n1)N1CCCC1 [4-(2-naphthyl)-2-[(2S)-2-(pyrrolidin-1-ylcarbonyl)pyrrolidin-1-yl]pyrimidine]	0.87	1.07			
CN(c1nccc(-c2ccc3ccccc3c2)n1)C1CCN(C(N)=O)CC1 [4-{methyl[4-(2-naphthyl)pyrimidin-2-yl]amino}piperidine-1-carboxamide]	1.65	0.63			
CCN1CCC(CNc2nccc(-c3ccc4ccccc4c3)n2)CC1 [N-[(1-ethylpiperidin-4-yl)methyl]-4-(2-naphthyl)pyrimidin-2-amine]	1.5	0.908	3.450	3.94	
O=C(Cc1ccccc1)N1CCC(CNc2nccc(-c3ccc4ccccc4c3)n2)CC1 [4-(2-naphthyl)-N-{[1-(phenylacetyl)piperidin-4-yl]methyl}pyrimidin-2-amine]	1.03	1.87			
O=C1CCCCN1C[C@@H]1CCN(c2nccc(-c3ccc4ccccc4c3)n2)C1 [1-({(3R)-1-[4-(2-naphthyl)pyrimidin-2-yl]pyrrolidin-3-yl}methyl)piperidin-2-one]	1.14	2.33		6.85	
NC(=O)N1CC(CNc2nccc(-c3ccc4ccccc4c3)n2)C1 [3-({[4-(2-naphthyl)pyrimidin-2-yl]amino}methyl)azetidine-1-carboxamide]	1.09	1.58			
c1ccc2cc(-c3ccnc(NCc4ccncc4)n3)ccc2c1 [4-(2-naphthyl)-N-(pyridin-4-ylmethyl)pyrimidin-2-amine]	1.41	1.7	2.070	2.42	
NCC1(O)CCN(c2nccc(-c3ccc4ccccc4c3)n2)CC1 [4-(aminomethyl)-1-[4-(2-naphthyl)pyrimidin-2-yl]piperidin-4-ol]	1.6		2.950	1.18	
COC(=O)C(Nc1nccc(-c2ccc3ccccc3c2)n1)C1CCN(C(=O)OC(C)(C)C)CC1 (stereo not drawn) [tert-butyl 4-(2-methoxy-1-{[4-(2-naphthyl)pyrimidin-2-yl]amino}-2-oxoethyl)piperidine-1-carboxylate]	1.62				
NC(=O)N[C@@H]1CCN(c2nccc(-c3ccc4ccccc4c3)n2)C1 [N-{(3R)-1-[4-(2-naphthyl)pyrimidin-2-yl]pyrrolidin-3-yl}urea]	2.09	1.63	1.550	4.3	
c1ccc2cc(-c3ccnc(NCCCN4CCOCC4)n3)ccc2c1 [N-(3-morpholin-4-ylpropyl)-4-(2-naphthyl)pyrimidin-2-amine]	1.68	3.27	2.120	23.8	
CCNC(=O)N1CC[C@H](Nc2nccc(-c3ccc4ccccc4c3)n2)C1 [(3S)—N-ethyl-3-{[4-(2-naphthyl)pyrimidin-2-yl]amino}pyrrolidine-1-carboxamide]	2.49	2.81	2.500		
Cc1ccc(S(=O)(=O)N2CC[C@H](Nc3nccc(-c4ccc5ccccc5c4)n3)C2)cc1 [N-{(3S)-1-[(4-methylphenyl)sulfonyl]pyrrolidin-3-yl}-4-(2-naphthyl)pyrimidin-2-amine]	1.22	1.01			
CCOC(=O)N1CC[C@H](Nc2nccc(-c3ccc4ccccc4c3)n2)C1 [ethyl (3S)-3-{[4-(2-naphthyl)pyrimidin-2-yl]amino}pyrrolidine-1-carboxylate]	1.28	1.54			
CCC(=O)N(C)CCN(C)[C@@H]1CCN(c2nccc(-c3ccc4ccccc4c3)n2)C1 [N-methyl-N-[2-(methyl{(3R)-1-[4-(2-naphthyl)pyrimidin-2-yl]pyrrolidin-3-yl}amino)ethyl]propanamide]		2.5			
CCCNc1nccc(-c2ccc3ccccc3c2)n1 [4-(2-naphthyl)-N-propylpyrimidin-2-amine]	1.28				
